From US20110028566A1, “COMPOSITIONS AND PRODUCTS CONTAINING CYCLOALIPHATIC DIOL ANTIMICROBIAL AGENTS AND METHODS OF USING THE COMPOSITIONS AND PRODUCTS” (EASTMAN CHEMICAL COMPANY, priority 2009, published 2011)

How the values were obtained:
Test in all cases: Microbial challenge testing in BPW
Format in all cases: cell-based
Candida albicans = conditions: for Grade code, C. albicans, 3 Day / Grade code, C. albicans, 14 Day / Grade code, C. albicans, 30 Days: BPW, w/v % in label, average of replicates
Summary of the method: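 C. albicans was grown in TSB with 1% dextrose at 22°C and harvested by gauze filtration and centrifugation. It was then adjusted by turbidity in pH 7.2 phosphate buffer and checked by hemocytometer and SDA plate counts. The inoculum was added to BPW (pH 7.0, 1% dextrose) containing test materials, giving 10^5–10^6 cfu/mL at time zero.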

Proteus vulgaris = conditions: for Grade code, P. vulgaris, 3 Days / Grade code, P. vulgaris, 13 Days / Grade code, P. vulgaris, 30 Day: BPW, w/v % in label, average of replicates
Summary of the method: (§1)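 Buffered peptone water (pH 7.0) with 1% (w/v) dextrose was spiked with test material (w/v %) and challenged to a final 10^5 to 10^6 cfu/mL at time zero. Substrates were incubated at 35° C.±2° C. for 14 days, then at ambient room temperature. Broth-alone tubes served as controls.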

Escherichia coli = conditions: for Grade code, E. coli, 3 Day / Grade code, E. coli, 14 Day / Grade code, E. coli, 30 Day: BPW, w/v % in label, average of replicates
Summary of the method: as §1

Aeromonas sp. = conditions: for Grade code, Aeromonas sp, 3 Days / Grade code, Aeromonas sp, 14 Days / Grade code, Aeromonas sp, 30 Days: BPW, w/v % in label, average of replicates
Summary of the method: as §1

[1] = 3 days incubation, listed as 0.5% AB
[2] = 3 days incubation, listed as 1.25% AB
[3] = 3 days incubation, listed as 2.5% AB
[4] = 14 days incubation, listed as 0.5% AB
[5] = 14 days incubation, listed as 1.25% AB
[6] = 14 days incubation, listed as 2.5% AB
[7] = 30 days incubation, listed as 0.5% AB
[8] = 30 days incubation, listed as 1.25% AB
[9] = 30 days incubation, listed as 2.5% AB

OCC1CCC(CO)CC1 (stereo not drawn) [1,4-CHDM, 1,4-cyclohexanedimethanol]
Grade code C. albicans (Candida albicans; 0.5%, 3 days incubation): 3 (101 to 1000 colonies (thus 1000 to 10,000 cfu/mL)) | Grade code C. albicans (Candida albicans; 0.5%, 14 days incubation): 4 (1001 to 10,000 colonies (thus 10,000 cfu/mL to 100,000 cfu/mL)) | Grade code C. albicans (Candida albicans; 0.5%, 30 days incubation): 4 (1001 to 10,000 colonies (thus 10,000 cfu/mL to 100,000 cfu/mL)) | Grade code C. albicans (Candida albicans; 1.25%, 3 days incubation): 1 (1 to 51 colonies counted (thus 10 to 510 cfu/mL)) | Grade code C. albicans (Candida albicans; 1.25%, 14 days incubation): 3 (101 to 1000 colonies (thus 1000 to 10,000 cfu/mL)) | Grade code C. albicans (Candida albicans; 1.25%, 30 days incubation): 4 (1001 to 10,000 colonies (thus 10,000 cfu/mL to 100,000 cfu/mL)) | Grade code C. albicans (Candida albicans; 2.5%, 3 days incubation): 0 (No growth detected or <1 colony (thus <10 cfu/mL)) | Grade code C. albicans (Candida albicans; 2.5%, 14 days incubation): 2 (52 to 100 colonies counted (thus 520 to 1000 cfu/mL)) | Grade code C. albicans (Candida albicans; 2.5%, 30 days incubation): 1 (1 to 51 colonies counted (thus 10 to 510 cfu/mL)) | Grade code, C. albicans, 3 Day (Candida albicans; [1]): 3 (101 to 1000 colonies (thus 1000 to 10,000 cfu/mL)) | Grade code, C. albicans, 3 Day (Candida albicans; [2]): 1 (1 to 51 colonies counted (thus 10 to 510 cfu/mL)) | Grade code, C. albicans, 3 Day (Candida albicans; [3]): 0 (No growth detected or <1 colony (thus <10 cfu/mL)) | Grade code, C. albicans, 14 Day (Candida albicans; [4]): 4 (1001 to 10,000 colonies (thus 10,000 cfu/mL to 100,000 cfu/mL)) | Grade code, C. albicans, 14 Day (Candida albicans; [5]): 3 (101 to 1000 colonies (thus 1000 to 10,000 cfu/mL)) | Grade code, C. albicans, 14 Day (Candida albicans; [6]): 2 (52 to 100 colonies counted (thus 520 to 1000 cfu/mL)) | Grade code, C. albicans, 30 Days (Candida albicans; [7]): 4 (1001 to 10,000 colonies (thus 10,000 cfu/mL to 100,000 cfu/mL)) | Grade code, C. albicans, 30 Days (Candida albicans; [8]): 4 (1001 to 10,000 colonies (thus 10,000 cfu/mL to 100,000 cfu/mL)) | Grade code, C. albicans, 30 Days (Candida albicans; [9]): 1 (1 to 51 colonies counted (thus 10 to 510 cfu/mL)) | Grade code P. vulqaris (Proteus vulgaris; 0.5%, 3 days incubation): 4 (1001 to 10,000 colonies (thus 10,000 cfu/mL to 100,000 cfu/mL)) | Grade code P. vulqaris (Proteus vulgaris; 0.5%, 13 days incubation): 4 (1001 to 10,000 colonies (thus 10,000 cfu/mL to 100,000 cfu/mL)) | Grade code P. vulqaris (Proteus vulgaris; 0.5%, 30 days incubation): 4 (1001 to 10,000 colonies (thus 10,000 cfu/mL to 100,000 cfu/mL)) | Grade code P. vulqaris (Proteus vulgaris; 1.25%, 3 days incubation): 3 (101 to 1000 colonies (thus 1000 to 10,000 cfu/mL)) | Grade code P. vulqaris (Proteus vulgaris; 1.25%, 13 days incubation): 2 (52 to 100 colonies counted (thus 520 to 1000 cfu/mL)) | Grade code P. vulqaris (Proteus vulgaris; 1.25%, 30 days incubation): 0 (No growth detected or <1 colony (thus <10 cfu/mL)) | Grade code P. vulqaris (Proteus vulgaris; 2.5%, 3 days incubation): 1 (1 to 51 colonies counted (thus 10 to 510 cfu/mL)) | Grade code P. vulqaris (Proteus vulgaris; 2.5%, 13 days incubation): 0 (No growth detected or <1 colony (thus <10 cfu/mL)) | Grade code P. vulqaris (Proteus vulgaris; 2.5%, 30 days incubation): 0 (No growth detected or <1 colony (thus <10 cfu/mL)) | Grade code, P. vulgaris, 3 Days (Proteus vulgaris; [1]): 4 (1001 to 10,000 colonies (thus 10,000 cfu/mL to 100,000 cfu/mL)) | Grade code, P. vulgaris, 3 Days (Proteus vulgaris; [2]): 3 (101 to 1000 colonies (thus 1000 to 10,000 cfu/mL)) | Grade code, P. vulgaris, 3 Days (Proteus vulgaris; [3]): 1 (1 to 51 colonies counted (thus 10 to 510 cfu/mL)) | Grade code, P. vulgaris, 13 Days (Proteus vulgaris; 13 days incubation, listed as 0.5% AB): 4 (1001 to 10,000 colonies (thus 10,000 cfu/mL to 100,000 cfu/mL)) | Grade code, P. vulgaris, 13 Days (Proteus vulgaris; 13 days incubation, listed as 1.25% AB): 2 (52 to 100 colonies counted (thus 520 to 1000 cfu/mL)) | Grade code, P. vulgaris, 13 Days (Proteus vulgaris; 13 days incubation, listed as 2.5% AB): 0 (No growth detected or <1 colony (thus <10 cfu/mL)) | Grade code, P. vulgaris, 30 Day (Proteus vulgaris; [7]): 4 (1001 to 10,000 colonies (thus 10,000 cfu/mL to 100,000 cfu/mL)) | Grade code, P. vulgaris, 30 Day (Proteus vulgaris; [8]): 0 (No growth detected or <1 colony (thus <10 cfu/mL)) | Grade code, P. vulgaris, 30 Day (Proteus vulgaris; [9]): 0 (No growth detected or <1 colony (thus <10 cfu/mL)) | Grade code E. coli (Escherichia coli; 0.5%, 3 days incubation): 5 (More than 10,000 colonies estimated (thus >100,000 cfu/mL)) | Grade code E. coli (Escherichia coli; 0.5%, 14 days incubation): 4 (1001 to 10,000 colonies (thus 10,000 cfu/mL to 100,000 cfu/mL)) | Grade code E. coli (Escherichia coli; 0.5%, 30 days incubation): 4 (1001 to 10,000 colonies (thus 10,000 cfu/mL to 100,000 cfu/mL)) | Grade code E. coli (Escherichia coli; 1.25%, 3 days incubation): 4 (1001 to 10,000 colonies (thus 10,000 cfu/mL to 100,000 cfu/mL)) | Grade code E. coli (Escherichia coli; 1.25%, 14 days incubation): 4 (1001 to 10,000 colonies (thus 10,000 cfu/mL to 100,000 cfu/mL)) | Grade code E. coli (Escherichia coli; 1.25%, 30 days incubation): 4 (1001 to 10,000 colonies (thus 10,000 cfu/mL to 100,000 cfu/mL)) | Grade code E. coli (Escherichia coli; 2.5%, 3 days incubation): 3 (101 to 1000 colonies (thus 1000 to 10,000 cfu/mL)) | Grade code E. coli (Escherichia coli; 2.5%, 14 days incubation): 2 (52 to 100 colonies counted (thus 520 to 1000 cfu/mL)) | Grade code E. coli (Escherichia coli; 2.5%, 30 days incubation): 0 (No growth detected or <1 colony (thus <10 cfu/mL)) | Grade code, E. coli, 3 Day (Escherichia coli; [1]): 5 (More than 10,000 colonies estimated (thus >100,000 cfu/mL)) | Grade code, E. coli, 3 Day (Escherichia coli; [2]): 4 (1001 to 10,000 colonies (thus 10,000 cfu/mL to 100,000 cfu/mL)) | Grade code, E. coli, 3 Day (Escherichia coli; [3]): 3 (101 to 1000 colonies (thus 1000 to 10,000 cfu/mL)) | Grade code, E. coli, 14 Day (Escherichia coli; [4]): 4 (1001 to 10,000 colonies (thus 10,000 cfu/mL to 100,000 cfu/mL)) | Grade code, E. coli, 14 Day (Escherichia coli; [5]): 4 (1001 to 10,000 colonies (thus 10,000 cfu/mL to 100,000 cfu/mL)) | Grade code, E. coli, 14 Day (Escherichia coli; [6]): 2 (52 to 100 colonies counted (thus 520 to 1000 cfu/mL)) | Grade code, E. coli, 30 Day (Escherichia coli; [7]): 4 (1001 to 10,000 colonies (thus 10,000 cfu/mL to 100,000 cfu/mL)) | Grade code, E. coli, 30 Day (Escherichia coli; [8]): 4 (1001 to 10,000 colonies (thus 10,000 cfu/mL to 100,000 cfu/mL)) | Grade code, E. coli, 30 Day (Escherichia coli; [9]): 0 (No growth detected or <1 colony (thus <10 cfu/mL)) | Grade code Aeromonas sp (Aeromonas sp.; 0.5%, 3 days incubation): 5 (More than 10,000 colonies estimated (thus >100,000 cfu/mL)) | Grade code Aeromonas sp (Aeromonas sp.; 0.5%, 14 days incubation): 4 (1001 to 10,000 colonies (thus 10,000 cfu/mL to 100,000 cfu/mL)) | Grade code Aeromonas sp (Aeromonas sp.; 0.5%, 30 days incubation): 4 (1001 to 10,000 colonies (thus 10,000 cfu/mL to 100,000 cfu/mL)) | Grade code Aeromonas sp (Aeromonas sp.; 1.25%, 3 days incubation): 4 (1001 to 10,000 colonies (thus 10,000 cfu/mL to 100,000 cfu/mL)) | Grade code Aeromonas sp (Aeromonas sp.; 1.25%, 14 days incubation): 3 (101 to 1000 colonies (thus 1000 to 10,000 cfu/mL)) | Grade code Aeromonas sp (Aeromonas sp.; 1.25%, 30 days incubation): 2 (52 to 100 colonies counted (thus 520 to 1000 cfu/mL)) | Grade code Aeromonas sp (Aeromonas sp.; 2.5%, 3 days incubation): 3 (101 to 1000 colonies (thus 1000 to 10,000 cfu/mL)) | Grade code Aeromonas sp (Aeromonas sp.; 2.5%, 14 days incubation): 1 (1 to 51 colonies counted (thus 10 to 510 cfu/mL)) | Grade code Aeromonas sp (Aeromonas sp.; 2.5%, 30 days incubation): 0 (No growth detected or <1 colony (thus <10 cfu/mL)) | Grade code, Aeromonas sp, 3 Days (Aeromonas sp.; [1]): 5 (More than 10,000 colonies estimated (thus >100,000 cfu/mL)) | Grade code, Aeromonas sp, 3 Days (Aeromonas sp.; [2]): 4 (1001 to 10,000 colonies (thus 10,000 cfu/mL to 100,000 cfu/mL)) | Grade code, Aeromonas sp, 3 Days (Aeromonas sp.; [3]): 3 (101 to 1000 colonies (thus 1000 to 10,000 cfu/mL)) | Grade code, Aeromonas sp, 14 Days (Aeromonas sp.; [4]): 4 (1001 to 10,000 colonies (thus 10,000 cfu/mL to 100,000 cfu/mL)) | Grade code, Aeromonas sp, 14 Days (Aeromonas sp.; [5]): 3 (101 to 1000 colonies (thus 1000 to 10,000 cfu/mL)) | Grade code, Aeromonas sp, 14 Days (Aeromonas sp.; [6]): 1 (1 to 51 colonies counted (thus 10 to 510 cfu/mL)) | Grade code, Aeromonas sp, 30 Days (Aeromonas sp.; [7]): 4 (1001 to 10,000 colonies (thus 10,000 cfu/mL to 100,000 cfu/mL)) | Grade code, Aeromonas sp, 30 Days (Aeromonas sp.; [8]): 2 (52 to 100 colonies counted (thus 520 to 1000 cfu/mL)) | Grade code, Aeromonas sp, 30 Days (Aeromonas sp.; [9]): 0 (No growth detected or <1 colony (thus <10 cfu/mL))
